Test results taken from ChEMBL document CHEMBL4725392, “Orally Bioavailable Small-Molecule CD73 Inhibitor (OP-5244) Reverses Immunosuppression through Blockade of Adenosine Production” (J Med Chem, 2020).
pEC50, pIC50: −log10 of the molar value.

Legend:
[1] = Terminal half life in rat at 50 mg/kg, po; assay type: ADME, organism-based; conditions: in vivo, read-out: beta t1/2 (converted)
[2] = AUC infinity in rat at 50 mg/kg, po; assay type: ADME, organism-based; design: time infinity, route oral, dose 50 mg/kg; conditions: in vivo
5'-nucleotidase [3] = target: T1, 5'-nucleotidase (Homo sapiens, UniProt P21589); experiment: Inhibition of human C-terminal His6-tagged CD73 expressed in CHO cells preincubated for 15 mins followed by AMP addition and measured after 10 mins by malachite green reagent based assay; assay type: cell-based
[4] = Cmax in rat at 50 mg/kg, po; assay type: ADME, organism-based; design: route oral, dose 50 mg/kg; conditions: in vivo
5'-nucleotidase [5] = target: T2, 5'-nucleotidase (Mus musculus, UniProt Q61503); experiment: Inhibition of CD73 in mouse EMT6 cells assessed as reduction in AMP-induced ADO expression preincubated for 15 mins followed by AMP addition and measured after 1 hr by LC-MS/MS analysis; assay type: cell-based
T2 sequence (Q61503 whole entry): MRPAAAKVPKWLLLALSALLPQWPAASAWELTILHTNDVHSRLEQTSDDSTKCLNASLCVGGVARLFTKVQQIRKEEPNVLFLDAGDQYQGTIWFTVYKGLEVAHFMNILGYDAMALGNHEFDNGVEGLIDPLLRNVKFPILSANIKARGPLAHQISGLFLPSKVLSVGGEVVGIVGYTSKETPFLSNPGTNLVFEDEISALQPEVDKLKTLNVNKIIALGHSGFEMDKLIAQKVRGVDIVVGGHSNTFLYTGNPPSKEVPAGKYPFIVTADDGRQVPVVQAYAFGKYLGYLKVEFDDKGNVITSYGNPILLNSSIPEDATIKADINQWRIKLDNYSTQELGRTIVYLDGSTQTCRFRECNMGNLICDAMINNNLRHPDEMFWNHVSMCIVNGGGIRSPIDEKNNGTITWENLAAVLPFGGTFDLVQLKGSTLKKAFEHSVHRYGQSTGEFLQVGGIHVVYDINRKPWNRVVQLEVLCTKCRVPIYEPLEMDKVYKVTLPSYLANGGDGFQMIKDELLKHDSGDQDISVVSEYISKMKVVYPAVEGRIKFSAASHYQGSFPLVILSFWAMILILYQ

[6] = Cmax in mouse at 200 mg/kg, po; assay type: ADME, organism-based; design: route oral, dose 200 mg/kg; conditions: in vivo
[7] = Terminal half life in mouse at 200 mg/kg, po; assay type: ADME, organism-based; conditions: in vivo, read-out: beta t1/2 (converted)
[8] = AUC infinity in mouse at 200 mg/kg, po; assay type: ADME, organism-based; design: route oral, time infinity, dose 200 mg/kg; conditions: in vivo
5'-nucleotidase [9] = target: T1, 5'-nucleotidase; experiment: Inhibition of CD73 in human NCI-H1568 cells assessed as reduction in AMP-induced ADO expression preincubated for 15 mins followed by AMP addition and measured after 1 hr by LC-MS/MS analysis; assay type: cell-based

T1 sequence (P21589 whole entry): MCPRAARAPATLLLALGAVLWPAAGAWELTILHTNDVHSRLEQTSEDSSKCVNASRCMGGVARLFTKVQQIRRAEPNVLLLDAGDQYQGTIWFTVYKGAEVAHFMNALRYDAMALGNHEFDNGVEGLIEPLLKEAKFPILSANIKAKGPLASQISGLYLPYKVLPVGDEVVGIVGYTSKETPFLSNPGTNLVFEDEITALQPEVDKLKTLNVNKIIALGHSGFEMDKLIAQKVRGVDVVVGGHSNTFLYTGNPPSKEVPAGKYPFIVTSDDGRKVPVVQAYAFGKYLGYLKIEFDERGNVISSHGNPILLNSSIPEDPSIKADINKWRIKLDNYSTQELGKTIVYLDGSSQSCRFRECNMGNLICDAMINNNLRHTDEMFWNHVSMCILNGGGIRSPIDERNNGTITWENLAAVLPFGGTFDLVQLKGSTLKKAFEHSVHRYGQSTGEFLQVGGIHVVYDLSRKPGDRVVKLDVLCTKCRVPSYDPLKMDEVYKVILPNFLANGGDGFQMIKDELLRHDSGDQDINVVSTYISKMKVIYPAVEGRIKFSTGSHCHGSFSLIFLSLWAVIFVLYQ

Structure (SMILES) | pIC50 (5'-nucleotidase [3]) | further results
O=P(O)(O)CS(=O)(=O)C[C@H]1O[C@@H](n2ncc3c(NCc4ccccc4Cl)nc(Cl)nc32)[C@H](O)[C@@H]1O | 7.89 | half-life [1]: 3 h; AUC(0-inf) [2]: 0.54 µM·h; Cmax [4]: 0.06 µM
CN(CC(C)(OC[C@H]1O[C@@H](n2ncc3c(NC4CCCC4)nc(Cl)nc32)[C@H](O)[C@@H]1O)P(=O)(O)O)S(C)(=O)=O (mixture of isomers) | 7.01 | –
CN(C)CC(C)(OC[C@H]1O[C@@H](n2ncc3c(NC4CCCC4)nc(Cl)nc32)[C@H](O)[C@@H]1O)P(=O)(O)O (mixture of isomers) | < 5.30 | –
O=P(O)(O)C(OC[C@H]1O[C@@H](n2ncc3c(NC4CCCC4)nc(Cl)nc32)[C@H](O)[C@@H]1O)c1nnn[nH]1 (mixture of isomers) | 7.55 | –
O=P(O)(O)C(CO)OC[C@H]1O[C@@H](n2ncc3c(NC4CCCC4)nc(Cl)nc32)[C@H](O)[C@@H]1O (mixture of isomers) | 8.62 | –
C[C@H](Nc1cc(Cl)nc2c1cnn2[C@@H]1O[C@H](COP(=O)(O)CP(=O)(O)O)[C@@H](O)[C@H]1O)c1ccccc1F | – | pEC50 (5'-nucleotidase [5]): 6.70
COP(=O)(O)CP(=O)(O)OC[C@H]1O[C@@H](n2ncc3c(NCc4ccccc4Cl)nc(Cl)nc32)[C@H](O)[C@@H]1O | 6.88 | –
CN(c1nc(Cl)nc2c1cnn2[C@@H]1O[C@H](COP(=O)(O)CP(=O)(O)O)[C@@H](O)[C@H]1O)[C@H]1CCc2ccccc21 | 9.28 | –
O=P(O)(O)COCC[C@H]1O[C@@H](n2ncc3c(NCc4ccccc4Cl)nc(Cl)nc32)[C@H](O)[C@@H]1O | 5.92 | –
COP(=O)(CP(=O)(O)O)OC[C@H]1O[C@@H](n2ncc3c(NCc4ccccc4Cl)nc(Cl)nc32)[C@H](O)[C@@H]1O (some centres undefined) | 7.61 | –
CC(CCO)(OC[C@H]1O[C@@H](n2ncc3c(NC4CCCC4)nc(Cl)nc32)[C@H](O)[C@@H]1O)P(=O)(O)O (mixture of isomers) | 7.51 | –
N#CC(OC[C@H]1O[C@@H](n2ncc3c(NC4CCCC4)nc(Cl)nc32)[C@H](O)[C@@H]1O)P(=O)(O)O (mixture of isomers) | 6.25 | –
CN(Cc1ccccc1)c1nc(Cl)nc2c1ncn2[C@@H]1O[C@H](COP(=O)(O)CP(=O)(O)O)[C@@H](O)[C@H]1O | 8.52 | –
O=P(O)(O)COC[C@H]1O[C@@H](n2ncc3c(NCc4ccccc4Cl)nc(Cl)nc32)[C@H](O)[C@@H]1O | 7.54 | half-life [1]: 1.9 h; AUC(0-inf) [2]: 0.66 µM·h; Cmax [4]: 0.11 µM
C[C@@](CO)(OC[C@H]1O[C@@H](n2ncc3c(NC4CCCC4)nc(Cl)nc32)[C@H](O)[C@@H]1O)P(=O)(O)O | 9.29 | Cmax [6]: 54.9 µM; half-life [7]: 2.88 h; pEC50 (5'-nucleotidase [5]): 7.39; AUC(0-inf) [8]: 54.2 µM·h; pEC50 (5'-nucleotidase [9]): 8.16
COCC(OC[C@H]1O[C@@H](n2ncc3c(NC4CCCC4)nc(Cl)nc32)[C@H](O)[C@@H]1O)P(=O)(O)O (mixture of isomers) | 9.02 | –
COCC(CO)(OC[C@H]1O[C@@H](n2ncc3c(NC4CCCC4)nc(Cl)nc32)[C@H](O)[C@@H]1O)P(=O)(O)O (mixture of isomers) | 9.28 | –
Nc1ncnc2c1ncn2[C@@H]1O[C@H](COP(=O)(O)CP(=O)(O)O)[C@@H](O)[C@H]1O [PHOSPHOMETHYLPHOSPHONIC ACID ADENOSYL ESTER] | 5.58 | pEC50 (5'-nucleotidase [9]): 4.79
CN(c1nc(Cl)nc2c1nnn2[C@@H]1O[C@H](COP(=O)(O)CP(=O)(O)O)[C@@H](O)[C@H]1O)[C@H]1CCc2ccccc21 | 8.89 | –
O=P(O)(O)CP(=O)(O)OC[C@H]1O[C@@H](n2nnc3c(NCc4ccccc4Cl)nc(Cl)nc32)[C@H](O)[C@@H]1O | 8.41 | –
O=P(O)(O)COC[C@H]1O[C@@H](n2ncc3c(NC4CCCC4)nc(Cl)nc32)[C@H](O)[C@@H]1O | 7.96 | –

The remaining molecules from weak to strong by pIC50 (5'-nucleotidase [3]), led by results:

pIC50 (5'-nucleotidase [3]) | Structure (SMILES) | further results
5.54 | COP(=O)(O)CP(=O)(OC)OC[C@H]1O[C@@H](n2ncc3c(NCc4ccccc4Cl)nc(Cl)nc32)[C@H](O)[C@@H]1O (some centres undefined) | –
6.29 | O=C(CP(=O)(O)O)OC[C@H]1O[C@@H](n2ncc3c(NCc4ccccc4Cl)nc(Cl)nc32)[C@H](O)[C@@H]1O | –
6.41 | O=P(O)(O)C(OC[C@H]1O[C@@H](n2ncc3c(NC4CCCC4)nc(Cl)nc32)[C@H](O)[C@@H]1O)C(F)(F)F (mixture of isomers) | –
6.48 | O=P(O)(O)CS(=O)(=O)NC[C@H]1O[C@@H](n2ncc3c(NCc4ccccc4Cl)nc(Cl)nc32)[C@H](O)[C@@H]1O | –
6.61 | CN(C[C@H]1O[C@@H](n2ncc3c(NCc4ccccc4Cl)nc(Cl)nc32)[C@H](O)[C@@H]1O)C(=O)CP(=O)(O)O | –
6.71 | CS(=O)(=O)C(OC[C@H]1O[C@@H](n2ncc3c(NC4CCCC4)nc(Cl)nc32)[C@H](O)[C@@H]1O)P(=O)(O)O (mixture of isomers) | –
6.79 | O=P(O)(O)CSC[C@H]1O[C@@H](n2ncc3c(NCc4ccccc4Cl)nc(Cl)nc32)[C@H](O)[C@@H]1O | –
6.97 | O=C(O)C(OC[C@H]1O[C@@H](n2ncc3c(NC4CCCC4)nc(Cl)nc32)[C@H](O)[C@@H]1O)P(=O)(O)O (mixture of isomers) | –
7.06 | O=P(O)(O)CCOC[C@H]1O[C@@H](n2ncc3c(NCc4ccccc4Cl)nc(Cl)nc32)[C@H](O)[C@@H]1O | –
7.64 | CC(CS(C)(=O)=O)(OC[C@H]1O[C@@H](n2ncc3c(NC4CCCC4)nc(Cl)nc32)[C@H](O)[C@@H]1O)P(=O)(O)O (mixture of isomers) | –
7.74 | CC(OC[C@H]1O[C@@H](n2ncc3c(NC4CCCC4)nc(Cl)nc32)[C@H](O)[C@@H]1O)P(=O)(O)O (mixture of isomers) | –
7.93 | C[C@](CO)(OC[C@H]1O[C@@H](n2ncc3c(NC4CCCC4)nc(Cl)nc32)[C@H](O)[C@@H]1O)P(=O)(O)O | –
8.00 | CSCC(C)(OC[C@H]1O[C@@H](n2ncc3c(NC4CCCC4)nc(Cl)nc32)[C@H](O)[C@@H]1O)P(=O)(O)O (mixture of isomers) | –
8.89 | CC(CO)(OC[C@H]1O[C@@H](n2ncc3c(NC4CCCC4)nc(Cl)nc32)[C@H](O)[C@@H]1O)P(=O)(O)O (mixture of isomers) | –
9.00 | COC[C@@](CO)(OC[C@H]1O[C@@H](n2ncc3c(NC4CCCC4)nc(Cl)nc32)[C@H](O)[C@@H]1O)P(=O)(O)O | –
9.24 | O=P(O)(O)C(CO)(CO)OC[C@H]1O[C@@H](n2ncc3c(NC4CCCC4)nc(Cl)nc32)[C@H](O)[C@@H]1O | Cmax [6]: 67.4 µM; half-life [7]: 3.3 h; pEC50 (5'-nucleotidase [5]): 7.34; AUC(0-inf) [8]: 95.6 µM·h; pEC50 (5'-nucleotidase [9]): 8.43
